Results published in ChEMBL document CHEMBL1145468, “Serum differentially alters the antifungal properties of echinocandin drugs” (Antimicrob Agents Chemother, 2007).
In brackets after ≈: the same amount, converted by molar mass. *1 amine or outer side, *2 acyl side, *3 side chain or, on linkers, in order; H or OH if unused. Where a SMILES comes first, the peptide text is derived from it. Bridges are numbered along the chain shown (N, C = ends). [ ]: non-standard residue; d: D form. The star is where a group is joined. hTyr(3S-OH,4S-OH,3'-OSO3H) = N[C@H](C(=O)O)[C@H](O)[C@@H](O)c1ccc(O)c(OS(=O)(=O)O)c1; pTerphenylCO(4''-OnC5H11) = CCCCCOc1ccc(-c2ccc(-c3ccc(C(=O)*)cc3)cc2)cc1; Orn(4R-OH,5R-OH) = O=C([C@H](C[C@@H](O)[C@@H](O)N[*:3])N[*:1])[*:2]; hTyr(3S-OH,4S-OH) = N[C@H](C(=O)O)[C@H](O)[C@@H](O)c1ccc(O)cc1; Pro(3S-OH,4S-Me) = C[C@H]1CN[C@H](C(=O)O)[C@H]1O; X1 = CCCCCOc1ccc(-c2cc(-c3ccc(C(=O)*)cc3)no2)cc1; Gln(3R-OH) = NC(=O)C[C@@H](O)[C@H](N)C(=O)O; Hyp = O=C(O)[C@@H]1C[C@@H](O)CN1

Legend:
[1] = system: Aspergillus terreus; experiment: Ratio of MIC for Aspergillus flavus to MIC for Aspergillus terreus in presence of 50% human serum; type: functional
[2] = system: Candida albicans; experiment: Ratio of MIC for Candida albicans to MIC for Candida albicans in presence of 50% human serum; type: functional
[3] = system: Nakaseomyces glabratus; experiment: Ratio of MIC for Candida glabrata to MIC for Candida glabrata in presence of 50% mouse serum; type: functional
[4] = system: Pichia kudriavzevii; experiment: Ratio of MIC for Candida krusei to MIC for Candida krusei in presence of 50% human serum; type: functional
[5] = system: Candida parapsilosis; experiment: Ratio of MIC for Candida parapsilosis to MIC for Candida parapsilosis in presence of 50% human serum; type: functional
[6] = system: Candida tropicalis; experiment: Ratio of MIC for Candida tropicalis to MIC for Candida tropicalis in presence of 50% human serum; type: functional
[7] = system: Candida albicans; experiment: Antifungal activity against Candida albicans 36082 infected BALB/c mouse assessed as fungal kidney burden after 14 days; type: functional; details: 336 h
[8] = Inhibition of glucan synthase in Aspergillus fumigatus R21
[9] = Inhibition of glucan synthase in Aspergillus fumigatus R21 in presence of 10% human serum
[10] = Inhibition of glucan synthase in Aspergillus fumigatus R21 in presence of 20% human serum
[11] = Inhibition of glucan synthase in Aspergillus fumigatus R21 in presence of 50% human serum
[12] = Inhibition of glucan synthase in Aspergillus fumigatus MF5668
[13] = Inhibition of glucan synthase in Aspergillus fumigatus MF5668 in presence of 10% human serum
[14] = Inhibition of glucan synthase in Aspergillus fumigatus MF5668 in presence of 20% human serum
[15] = Inhibition of glucan synthase in Aspergillus fumigatus MF5668 in presence of 50% human serum
[16] = Inhibition of glucan synthase in Aspergillus fumigatus ATCC 13073
[17] = Inhibition of glucan synthase in Aspergillus fumigatus ATCC 13073 in presence of 10% human serum
[18] = Inhibition of glucan synthase in Aspergillus fumigatus ATCC 13073 in presence of 20% human serum
[19] = Inhibition of glucan synthase in Aspergillus fumigatus ATCC 13073 in presence of 50% human serum
[20] = molecular target: T1, Glucan synthase (Candida albicans, UniProt O13423); experiment: Inhibition of glucan synthase in Candida albicans ATCC 90028
[21] = molecular target: T1, Glucan synthase; experiment: Inhibition of glucan synthase in Candida albicans ATCC 90028 in presence of 10% human serum
[22] = molecular target: T1, Glucan synthase; experiment: Inhibition of glucan synthase in Candida albicans ATCC 90028 in presence of 20% human serum
[23] = molecular target: T1, Glucan synthase; experiment: Inhibition of glucan synthase in Candida albicans ATCC 90028 in presence of 50% human serum
[24] = molecular target: T1, Glucan synthase; experiment: Inhibition of glucan synthase in Candida albicans ATCC 36082
[25] = molecular target: T1, Glucan synthase; experiment: Inhibition of glucan synthase in Candida albicans ATCC 36082 in presence of 10% human serum
[26] = molecular target: T1, Glucan synthase; experiment: Inhibition of glucan synthase in Candida albicans ATCC 36082 in presence of 20% human serum
[27] = molecular target: T1, Glucan synthase; experiment: Inhibition of glucan synthase in Candida albicans ATCC 36082 in presence of 50% human serum
[28] = molecular target: T1, Glucan synthase; experiment: Inhibition of glucan synthase in Candida albicans SC5314
[29] = molecular target: T1, Glucan synthase; experiment: Inhibition of glucan synthase in Candida albicans SC5314 in presence of 10% human serum
[30] = molecular target: T1, Glucan synthase; experiment: Inhibition of glucan synthase in Candida albicans SC5314 in presence of 20% human serum
[31] = molecular target: T1, Glucan synthase; experiment: Inhibition of glucan synthase in Candida albicans SC5314 in presence of 50% human serum
[32] = system: Aspergillus fumigatus; experiment: Ratio of MIC for Aspergillus fumigatus to MIC for Aspergillus fumigatus in presence of 50% human serum; type: functional
[33] = system: Aspergillus flavus; experiment: Ratio of MIC for Aspergillus flavus to MIC for Aspergillus flavus in presence of 50% human serum; type: functional
[34] = system: Aspergillus niger; experiment: Ratio of MIC for Aspergillus flavus to MIC for Aspergillus niger in presence of 50% human serum; type: functional
[35] = molecular target: T1, Glucan synthase; experiment: Inhibition of glucan synthase in Candida albicans 36082 assessed as incorporation of [3H]uridine diphosphoglucose
[36] = molecular target: T1, Glucan synthase; experiment: Inhibition of glucan synthase in Candida albicans 36082 assessed as incorporation of [3H]uridine diphosphoglucose in presence of 10% serum
[37] = molecular target: T1, Glucan synthase; experiment: Inhibition of glucan synthase in Candida albicans 36082 assessed as incorporation of [3H]uridine diphosphoglucose in presence of 20% serum
[38] = molecular target: T1, Glucan synthase; experiment: Inhibition of glucan synthase in Candida albicans 36082 assessed as incorporation of [3H]uridine diphosphoglucose in presence of 50% serum

T1 sequence (O13423 whole entry): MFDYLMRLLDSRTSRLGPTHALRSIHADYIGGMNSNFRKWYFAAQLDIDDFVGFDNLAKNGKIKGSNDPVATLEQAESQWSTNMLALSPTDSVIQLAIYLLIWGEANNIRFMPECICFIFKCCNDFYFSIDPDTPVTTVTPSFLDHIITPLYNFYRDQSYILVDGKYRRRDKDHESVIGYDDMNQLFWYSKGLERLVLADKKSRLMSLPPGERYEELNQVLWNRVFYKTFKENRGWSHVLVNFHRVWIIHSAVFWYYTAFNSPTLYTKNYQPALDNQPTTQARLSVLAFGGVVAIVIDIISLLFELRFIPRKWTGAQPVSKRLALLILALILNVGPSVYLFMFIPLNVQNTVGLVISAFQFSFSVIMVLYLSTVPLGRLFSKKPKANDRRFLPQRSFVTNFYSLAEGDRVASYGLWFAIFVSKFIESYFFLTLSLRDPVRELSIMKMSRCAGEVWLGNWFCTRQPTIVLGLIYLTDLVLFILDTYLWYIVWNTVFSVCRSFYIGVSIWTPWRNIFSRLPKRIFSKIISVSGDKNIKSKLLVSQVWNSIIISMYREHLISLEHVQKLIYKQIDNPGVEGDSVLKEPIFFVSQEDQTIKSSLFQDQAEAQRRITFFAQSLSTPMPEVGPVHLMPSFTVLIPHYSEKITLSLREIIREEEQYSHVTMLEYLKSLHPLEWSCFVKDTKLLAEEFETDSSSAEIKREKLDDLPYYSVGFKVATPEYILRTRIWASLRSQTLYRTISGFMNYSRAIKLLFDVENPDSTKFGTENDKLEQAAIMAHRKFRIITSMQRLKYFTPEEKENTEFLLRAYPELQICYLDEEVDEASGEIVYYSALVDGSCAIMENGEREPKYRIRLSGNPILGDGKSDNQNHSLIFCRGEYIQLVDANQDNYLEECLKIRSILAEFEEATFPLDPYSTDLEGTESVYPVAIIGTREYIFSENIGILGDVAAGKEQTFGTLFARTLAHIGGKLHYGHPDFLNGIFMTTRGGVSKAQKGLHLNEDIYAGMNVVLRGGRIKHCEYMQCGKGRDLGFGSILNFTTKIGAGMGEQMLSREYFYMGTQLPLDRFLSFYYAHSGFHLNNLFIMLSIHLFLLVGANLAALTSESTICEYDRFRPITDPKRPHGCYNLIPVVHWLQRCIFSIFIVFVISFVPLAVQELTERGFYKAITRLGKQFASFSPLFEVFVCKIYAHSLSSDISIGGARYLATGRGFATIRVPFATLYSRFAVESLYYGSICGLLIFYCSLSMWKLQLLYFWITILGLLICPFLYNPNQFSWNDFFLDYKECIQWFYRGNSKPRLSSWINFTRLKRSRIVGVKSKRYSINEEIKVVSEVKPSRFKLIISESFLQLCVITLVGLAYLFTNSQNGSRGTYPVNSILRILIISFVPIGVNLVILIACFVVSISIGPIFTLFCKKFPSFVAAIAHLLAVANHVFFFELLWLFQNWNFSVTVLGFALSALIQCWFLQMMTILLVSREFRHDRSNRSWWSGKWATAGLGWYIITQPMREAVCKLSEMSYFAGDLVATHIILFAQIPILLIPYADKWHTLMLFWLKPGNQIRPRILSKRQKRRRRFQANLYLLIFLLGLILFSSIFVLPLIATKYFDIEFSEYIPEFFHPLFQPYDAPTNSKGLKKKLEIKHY

Structure (SMILES)	Ratio [1]	Ratio [2]	Ratio [3]	Ratio [4]	Ratio [5]	Ratio [6]	ED90 [7] [mg/kg]	ED99 [7] [mg/kg]	IC50 [8] [ng/mL]	IC50 [9] [ng/mL]	IC50 [10] [ng/mL]	IC50 [11] [ng/mL]	IC50 [12] [ng/mL]	IC50 [13] [ng/mL]	IC50 [14] [ng/mL]	IC50 [15] [ng/mL]	IC50 [16] [ng/mL]	IC50 [17] [ng/mL]	IC50 [18] [ng/mL]	IC50 [20] [µM]	further results
CCCCCOc1ccc(-c2cc(-c3ccc(C(=O)N[C@H]4C[C@@H](O)[C@@H](O)NC(=O)[C@@H]5[C@@H](O)[C@@H](C)CN5C(=O)[C@H]([C@H](O)CC(N)=O)NC(=O)[C@H]([C@H](O)[C@@H](O)c5ccc(O)c(OS(=O)(=O)O)c5)NC(=O)[C@@H]5C[C@@H](O)CN5C(=O)[C@H]([C@@H](C)O)NC4=O)cc3)no2)cc1 [MICAFUNGIN] (X1-[Orn(4R-OH,5R-OH)]T[Hyp][hTyr(3S-OH,4S-OH,3'-OSO3H)][Gln(3R-OH)][Pro(3S-OH,4S-Me)]; lactam 1-C)	32	64	64	133	8	128	1.97	3.71	3.7 (≈ 2.91 nM)	6.2	10.3	23.2	2.2 (≈ 1.73 nM)	3.2	3.3	7.6	2 (≈ 1.57 nM)	4.7	7.5	0.0142	IC50 [19]: 9.8 ng/mL; IC50 [21]: 0.0224 µM; IC50 [22]: 0.0394 µM; IC50 [23]: 0.071 µM; IC50 [24]: 0.0085 µM; IC50 [25]: 0.0187 µM; IC50 [26]: 0.0247 µM; IC50 [27]: 0.0449 µM; IC50 [28]: 0.0212 µM; IC50 [29]: 0.0257 µM; IC50 [30]: 0.0398 µM; IC50 [31]: 0.0706 µM; Ratio [32]: 64; Ratio [33]: 33; Ratio [34]: 133
CCCCCOc1ccc(-c2ccc(-c3ccc(C(=O)N[C@H]4C[C@@H](O)[C@@H](O)NC(=O)[C@@H]5[C@@H](O)[C@@H](C)CN5C(=O)[C@H]([C@@H](C)O)NC(=O)[C@H]([C@H](O)[C@@H](O)c5ccc(O)cc5)NC(=O)[C@@H]5C[C@@H](O)CN5C(=O)[C@H]([C@@H](C)O)NC4=O)cc3)cc2)cc1 [ANIDULAFUNGIN] ({pTerphenylCO(4''-OnC5H11)}-[Orn(4R-OH,5R-OH)]T[Hyp][hTyr(3S-OH,4S-OH)]T[Pro(3S-OH,4S-Me)]; lactam 1-C)	16	16	64	32	8	128	1.17	1.36	0.75 (≈ 0.658 nM)	1.9	3.1	11.9	0.29 (≈ 0.254 nM)	5.5	6.9	28.1	13.3 (≈ 11.7 nM)	21.4	77.4	0.000877	IC50 [35]: 0.00088 µM; IC50 [36]: 0.00414 µM; IC50 [37]: 0.0164 µM; IC50 [38]: 0.0258 µM; IC50 [21]: 0.00414 µM; IC50 [22]: 0.0163 µM; IC50 [23]: 0.0217 µM; IC50 [24]: 0.0162 µM; IC50 [25]: 0.021 µM; IC50 [26]: 0.0627 µM; IC50 [28]: 0.015 µM; IC50 [29]: 0.0134 µM; IC50 [30]: 0.0655 µM; IC50 [31]: 0.0781 µM; Ratio [32]: 32; Ratio [33]: 32; Ratio [34]: 32
CC[C@H](C)C[C@H](C)CCCCCCCCC(=O)N[C@H]1C[C@@H](O)[C@@H](NCCN)NC(=O)[C@@H]2[C@@H](O)CCN2C(=O)[C@H]([C@H](O)CCN)NC(=O)[C@H]([C@H](O)[C@@H](O)c2ccc(O)cc2)NC(=O)[C@@H]2C[C@@H](O)CN2C(=O)[C@H]([C@@H](C)O)NC1=O [CASPOFUNGIN]	4	2	4	8	4	4	1.05	1.1	1.6 (≈ 1.46 nM)	2.7	3.6	10.3	1.1 (≈ 1.01 nM)	1	3.2	4.8	2 (≈ 1.83 nM)	2.8	5.9	0.000274	IC50 [35]: 0.000302 µM; IC50 [36]: 0.00121 µM; IC50 [37]: 0.0019 µM; IC50 [38]: 0.00569 µM; IC50 [19]: 9.4 ng/mL; IC50 [21]: 0.00119 µM; IC50 [22]: 0.00192 µM; IC50 [23]: 0.00576 µM; IC50 [24]: 0.000823 µM; IC50 [25]: 0.00256 µM; IC50 [26]: 0.00485 µM; IC50 [27]: 0.00796 µM; IC50 [28]: 0.0134 µM; IC50 [29]: 0.0247 µM; IC50 [30]: 0.0338 µM; IC50 [31]: 0.0736 µM; Ratio [32]: 11; Ratio [33]: 8; Ratio [34]: 8
